Source: PubChem BioAssay (NCI)
Values joined by “and” are separate entries in the source; they are usually repeats but may differ in a detail not shown here. Equal entries are not always repeated.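 A five-concentration, 48-hour dose response in 96-well plates underlies each endpoint, interpolated linearly between surrounding concentrations. GI50 is the concentration that inhibits growth by half. TGI: concentration producing complete growth inhibition.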

What was measured:
Experiment in all cases: DTP human tumour cell line panel, 48 h
[1] = test system: HCT-116 colon
[2] = test system: KM12 colon
[3] = test system: MALME-3M melanoma
[4] = test system: MOLT-4 leukemia
[5] = test system: OVCAR-8 ovarian
[6] = test system: PC-3 prostate
[7] = test system: SF-295 CNS
[8] = test system: T-47D breast
[9] = test system: TK-10 renal
[10] = test system: UO-31 renal

SMILES	GI50 [1]	TGI [1]	GI50 [2]	TGI [2]	GI50 [3]	TGI [3]	GI50 [4]	TGI [4]	GI50 [5]	TGI [5]	GI50 [6]	TGI [6]	GI50 [7]	TGI [7]	GI50 [8]	TGI [8]	GI50 [9]	TGI [9]	GI50 [10]	TGI [10]
O=S(=O)(O)ONC1=NCCN1	65.1 µM	> 100 µM	> 100 µM	> 100 µM	> 100 µM	> 100 µM	49.7 µM	> 100 µM	> 100 µM	> 100 µM	> 100 µM	> 100 µM	> 100 µM	> 100 µM	38.8 µM	> 100 µM	> 100 µM	> 100 µM	29.1 µM	> 100 µM
NS(=O)(=O)c1ccc(NC(=O)Nc2ccccc2F)cc1		> 100 µM		> 100 µM		> 100 µM		> 100 µM		> 100 µM		> 100 µM		> 100 µM		> 100 µM		> 100 µM		> 100 µM
CCc1nc(-n2c(-c3ccccc3)nc3ccccc3c2=O)nc(N)c1-c1ccc(Cl)cc1	3.28 µM	> 100 µM	26.6 µM	> 100 µM	23.9 µM	> 100 µM	6.13 µM	> 100 µM	7.96 µM	> 100 µM	5.64 µM	90.6 µM	2.26 µM	20.2 µM	27 µM	81 µM	23.1 µM	> 100 µM	48.6 µM	> 100 µM
Oc1ccc(Cl)cc1-c1cc(-c2ccc(F)cc2)n[nH]1	2 µM	5.64 µM	1.01 µM	2.54 µM	3.26 µM	9.66 µM	2.8 µM	41.4 µM	1.85 µM	5.39 µM	1.96 µM	8.81 µM	2.16 µM	5.24 µM	1.6 µM	38.8 µM	3.23 µM	8.74 µM	1.21 µM	3.78 µM
N#Cc1c2c(c(-c3cccs3)n(C3OC(CO)C(O)C(O)C3O)c1=S)CCc1ccccc1-2 (stereo unspecified)	7.39 µM and 15.5 µM	> 100 µM		> 100 µM		> 100 µM		> 100 µM		> 100 µM		> 100 µM		> 100 µM	> 25.1 µM and 7.83 µM	> 100 µM		> 100 µM		> 100 µM
CCCCCc1c(C)[nH]c(/C=C2\N=C(c3ccc[nH]3)C=C2OCc2ccccc2)c1C	0.0343 µM and 0.0186 µM	0.189 µM and 0.133 µM	0.0352 µM and 0.0246 µM	1.04 µM and 0.262 µM	0.116 µM and 0.0585 µM	0.494 µM and 0.209 µM	0.0365 µM and 0.0402 µM	1.33 µM and 7.14 µM	0.0489 µM and 0.039 µM	1.23 µM and 0.172 µM	0.0413 µM and 0.0183 µM	2.06 µM and 1.17 µM	0.0689 µM and 0.0431 µM	0.337 µM and 0.292 µM	0.0445 µM and 0.0311 µM	0.741 µM and 1.01 µM	0.0475 µM and 0.0418 µM	1.01 µM and 0.471 µM	0.103 µM and 0.0318 µM	0.282 µM and 0.128 µM
C[N+](C)([O-])CCCNc1ccnc2cccc([N+](=O)[O-])c12		> 100 µM		> 100 µM		87.6 µM		67.6 µM		> 100 µM		> 100 µM		> 100 µM		> 100 µM		> 100 µM		> 100 µM
CC(=O)N1CCN(CCOc2ccc(C3CCN(C4=Nn5c(nnc5C(F)(F)F)CC4)CC3)cc2)CC1	15.7 µM	> 100 µM	31.5 µM	> 100 µM	9.89 µM	99.6 µM	27 µM	> 100 µM	36 µM	> 100 µM	7.87 µM	> 100 µM	12.2 µM	> 85.9 µM	5.21 µM	> 100 µM	7.31 µM	> 100 µM	4.75 µM	> 100 µM
CCOC(=O)Cc1csc(NC(=O)COC(=O)c2ccc(OC)cc2)n1	> 91.9 µM	> 100 µM	> 83.6 µM	> 100 µM	64.9 µM	> 100 µM		> 35.6 µM	47.5 µM	> 73.2 µM	26.5 µM	> 100 µM	> 100 µM	> 100 µM	> 100 µM	> 100 µM	> 100 µM	> 100 µM	5.76 µM	11.1 µM
O=C(O)C(=O)CBr	> 38.9 µM and 18.5 µM	> 54.2 µM and 33.3 µM	> 100 µM and 19 µM	> 100 µM and 34.5 µM	> 41.7 µM and 16.9 µM	> 59.1 µM and 32.5 µM	> 40.6 µM and 21.9 µM	> 72.9 µM and 51.9 µM	> 43.4 µM and 19.5 µM	> 59.7 µM and 36.7 µM	> 51.6 µM and 19.5 µM	> 81.7 µM and 37.1 µM	> 100 µM	> 100 µM	> 100 µM and 25.5 µM	> 100 µM and 64.7 µM	> 39.7 µM and 11.4 µM	> 55.3 µM and 24.6 µM	> 38 µM and 17.3 µM	> 54.7 µM and 31.8 µM
O=C(CCl)Nc1cc(O)c2c(c1)C(=O)c1cccc(O)c1C2=O	0.646 µM	2.12 µM	1.74 µM	3.4 µM	0.897 µM	2.58 µM	0.321 µM	1.76 µM	2.09 µM	7.65 µM	1.57 µM	3.95 µM	2.28 µM	7.69 µM	1.19 µM	3.61 µM	1.97 µM	3.39 µM	1.39 µM	2.71 µM
O=C(c1ccccc1)C1C(C(=O)c2ccccc2)C(c2ccccc2)N(c2ccccc2)C1c1ccccc1 (stereo unspecified)		> 100 µM				> 100 µM		> 100 µM		> 100 µM		> 100 µM		> 100 µM		> 100 µM		> 100 µM		> 100 µM
O=C(Nc1ccc(I)cc1F)c1cc(I)ccc1O	0.768 µM	3.35 µM	1.01 µM	3.85 µM	0.32 µM	1.52 µM	0.965 µM	3.5 µM	0.802 µM	> 100 µM	1.14 µM	9.76 µM	0.8 µM	2.14 µM	0.649 µM	2.94 µM	1.49 µM	> 64.5 µM	0.535 µM	2.22 µM
CO[C@H](C(=O)O)[C@@H]1Cc2cc3cc(OC4CC(OC5CC(O)C(O)C(C)O5)C(O)C(C)O4)c(C)c(O)c3c(O)c2C(=O)[C@H]1OC1CC(OC2CC(OC3CC(C)(O)C(O)C(C)O3)C(O)C(C)O2)C(O)C(C)O1 (stereo partly specified)	0.132 µM	> 32.5 µM	0.233 µM	2.59 µM	0.205 µM	1.4 µM	0.272 µM	6.41 µM	0.284 µM	> 32.5 µM	0.348 µM	> 32.5 µM	0.167 µM	> 32.5 µM	0.302 µM	> 32.5 µM	1.45 µM	> 32.5 µM	0.637 µM	5.33 µM
c1ccc2nc(OCCN3CC3)ccc2c1	2.39 µM	15.5 µM	4.37 µM	16.5 µM	16.6 µM	43.6 µM	4.04 µM	59 µM	14 µM	31.4 µM	10.4 µM	25.2 µM	11.6 µM	35.4 µM	12.4 µM	30.6 µM	4.89 µM	23.1 µM	6.39 µM	25 µM
COc1cccc(C2=C(c3cn(C)c4cccc(OC)c34)C(=O)NC2=O)c1	9.55 µM	> 25 µM	6.01 µM	> 25 µM	> 16.6 µM	> 25 µM	12.5 µM	> 25 µM	18.5 µM	> 25 µM	8.02 µM	> 25 µM	7.05 µM	> 25 µM	13.7 µM	> 25 µM	15.3 µM	> 25 µM	17.9 µM	> 25 µM
COc1ccc(-c2c(N)n[nH]c2-c2cc(OC)c(OC)c(OC)c2)cc1	0.173 µM	> 38.8 µM	0.0594 µM	18 µM	22.5 µM	> 100 µM	0.275 µM	> 100 µM	0.424 µM	> 100 µM	0.11 µM	> 100 µM	0.0758 µM	> 100 µM	25.3 µM	> 100 µM			0.926 µM	> 68.7 µM
CCCn1c(N)c(C(=O)CNc2ccc(I)cc2)c(=O)[nH]c1=O	0.677 µM	> 100 µM			45.6 µM	> 100 µM	0.422 µM	> 100 µM	4.72 µM	> 100 µM	5.44 µM	> 100 µM	0.795 µM	> 63.6 µM	> 100 µM	> 100 µM	16.7 µM	> 100 µM		> 100 µM
COc1cc(/C=N\O)nc(-c2ccccn2)c1		> 100 µM		> 100 µM		> 100 µM		> 100 µM				> 100 µM		> 100 µM		> 100 µM		> 100 µM		3.13 µM
Cc1ncc([N+](=O)[O-])n1CCNC(=O)CCCCCn1ccnc1[N+](=O)[O-]		> 100 µM		> 100 µM		> 100 µM		> 100 µM		> 100 µM		> 100 µM		> 100 µM		> 100 µM				> 100 µM
N#Cc1cccc(OCc2ccccc2COc2cccc(C#N)c2)c1	22 µM	93.3 µM			4.02 µM	38 µM	> 100 µM	> 100 µM	55.9 µM	> 100 µM	25.5 µM	> 100 µM	5.64 µM	20.3 µM	55.6 µM	> 100 µM	11.8 µM	29.5 µM	51.3 µM	> 100 µM
